Key:
[1] = tested on: c-Jun and FBW7 ubiquitination in TBL3 cells; assay: Ubiquitination of endogenous c-Jun and FBW7 in TBL3 cells; type: cell-based, bovine
[2] = tested on: parasite load in infected TBL3 cells; assay: Western blot analysis of parasite actin (TaActin) in infected TBL3 cells; type: cell-based, T.annulata; details: 72h treatment
[3] = tested on: parasite-infected cells (Theileria parva - TpMD409); assay: Cell viability XTT assay, TpMD409; type: cell-based, bovine; details: 72h
Protocol: All infected bovine cell lines used in this study were previously described: TBL3 cells were derived from in vitro infection of the spontaneous bovine-B lymphosarcoma cell line, BL3, with Hissar stock of T.annulata. The TpMD409 lymphocyte cell line are infected with T. parva. The culture conditions of these cell lines were previously described by Moreau et al., 1999. Cells were cultured in RPMI 1640 (Gibco-BRL, Paisley, UK), supplemented with 10% heat-inactivated Fetal calf serum, 4mM L-Glutamine, 25mM HEPES, 10µM β-mercaptoethanol and 100µg/ml penicillin/streptomycin in a humidified 5%CO2 atmosphere at 37°C. HepG2, NIH/3T3 and MEF cells lines were cultured in DMEM (Gibco-BRL, Paisley, UK), supplemented with 10% heat-inactivated Fetal calf serum, 4mM L-Glutamine, 25 mM HEPES, 10µM β-mercaptoethanol and 100µg/ml penicillin/streptomycin in a humidified 5% CO2 atmosphere at 37°C. Cell numbers, as judged by Trypan Blue exclusion test, were determined by counting cells using a Countess automated cell counter (Invitrogen, CA, USA). The anti-parasite drug Buparvaquone (BW720c) was used at 200ng/ml for 72 hours. BW720c has no effect on growth of uninfected cells. […]

CC(C)(C)C1CCC(CC2=C(O)C(=O)c3ccccc3C2=O)CC1 (stereo not shown) [Buparvaquone, 2-((4-tert-butylcyclohexyl)methyl)-3-hydroxy-1,4-naphthoquinone]
ubiquitination of endogenous c-Jun protein ([1]; TBL3 cells): elevated | rescue of the drug effect on c-Jun ubiquitination by overexpressing the TaPIN A53P mutant ([1]; TBL3 cells overexpressing TaPIN A53P): rescued | parasite load, parasite actin (TaActin) [2]: decreased parasite load | viability of parasite-infected cells [3]: decreased the viability
